The text below walks through data of PMC4790851, “Iminosugars Inhibit Dengue Virus Production via Inhibition of ER Alpha-Glucosidases—Not Glycolipid Processing Enzymes” (PLoS Neglected Tropical Diseases, 2016).

Structures are written as SMILES.

What is called IC50 is the concentration at which inhibition is half-maximal. As usually defined, the inhibition is the percentage by which the read-out fell short of the control. For orientation: EC50 means the midpoint of the concentration-response curve.

Assay [1] relates to monosialodihexosylganglioside (GM3) production. Kind of assay: Glycosphingolipid analysis: GM3 levels in MDMΦs by NP-HPLC. The conditions noted are these: 48 h; for GM3 production (%): uninfected MDMΦ, normalized to untreated controls, mean ± SD, min. 3 donors. In kind it is cell-based, human.
Assay [2] deals with T1, Mouse ER α-glucosidase II (Mus musculus, UniProt Q8BHN3).
T1 sequence (Q8BHN3 33-944): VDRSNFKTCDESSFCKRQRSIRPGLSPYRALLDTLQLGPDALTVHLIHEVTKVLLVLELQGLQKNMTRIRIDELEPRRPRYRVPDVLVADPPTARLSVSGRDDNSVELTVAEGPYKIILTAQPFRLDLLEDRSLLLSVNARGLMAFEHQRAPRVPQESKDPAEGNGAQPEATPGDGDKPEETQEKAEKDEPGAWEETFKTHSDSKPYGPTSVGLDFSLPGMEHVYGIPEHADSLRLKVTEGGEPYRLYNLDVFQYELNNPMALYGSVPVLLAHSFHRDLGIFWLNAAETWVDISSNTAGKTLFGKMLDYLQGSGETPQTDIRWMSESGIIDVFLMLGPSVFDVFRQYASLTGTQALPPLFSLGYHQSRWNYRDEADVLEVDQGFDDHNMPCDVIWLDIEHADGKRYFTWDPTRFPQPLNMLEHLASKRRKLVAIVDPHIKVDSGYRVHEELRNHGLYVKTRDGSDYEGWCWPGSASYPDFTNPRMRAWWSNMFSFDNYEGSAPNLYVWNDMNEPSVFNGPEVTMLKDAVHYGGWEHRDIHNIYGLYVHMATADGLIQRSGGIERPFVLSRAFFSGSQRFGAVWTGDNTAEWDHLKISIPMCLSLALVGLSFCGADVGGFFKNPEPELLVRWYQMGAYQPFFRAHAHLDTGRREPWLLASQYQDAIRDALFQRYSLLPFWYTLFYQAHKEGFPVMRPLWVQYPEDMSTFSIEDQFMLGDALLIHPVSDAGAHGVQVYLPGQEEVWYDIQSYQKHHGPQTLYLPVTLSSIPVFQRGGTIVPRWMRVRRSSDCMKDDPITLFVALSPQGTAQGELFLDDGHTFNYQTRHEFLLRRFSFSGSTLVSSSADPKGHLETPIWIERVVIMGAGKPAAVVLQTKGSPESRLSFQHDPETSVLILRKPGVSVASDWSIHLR
T1 sequence (O08795 15-521 partner): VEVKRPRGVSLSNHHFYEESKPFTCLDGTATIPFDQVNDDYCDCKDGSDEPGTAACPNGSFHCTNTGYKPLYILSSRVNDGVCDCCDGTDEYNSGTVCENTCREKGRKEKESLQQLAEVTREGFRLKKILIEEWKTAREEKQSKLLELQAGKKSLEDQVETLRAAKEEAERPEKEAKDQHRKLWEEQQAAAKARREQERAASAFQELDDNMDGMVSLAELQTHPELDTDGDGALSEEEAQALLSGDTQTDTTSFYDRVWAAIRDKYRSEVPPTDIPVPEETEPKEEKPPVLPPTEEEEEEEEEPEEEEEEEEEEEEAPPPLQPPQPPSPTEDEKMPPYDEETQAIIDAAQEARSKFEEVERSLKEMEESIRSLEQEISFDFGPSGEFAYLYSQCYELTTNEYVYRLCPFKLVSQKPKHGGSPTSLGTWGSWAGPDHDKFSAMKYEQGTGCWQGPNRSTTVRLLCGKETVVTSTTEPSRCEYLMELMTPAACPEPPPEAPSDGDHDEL
The assay can be described thus: In vitro enzyme inhibition, 4MUG hydrolysis. In kind it is biochemical. The conditions noted are these: concentration required to inhibit the enzyme to 50% activity. On the procedure: Recombinant Mus musculus ER alpha-glucosidase II inhibition was measured by incubating 20 nM enzyme with various concentrations of inhibitors in 100 mM potassium phosphate pH 7.2 at 37 °C for 5 minutes. Activity was measured by addition of 0.25 mM 4-methylumbelliferyl α-D-glucopyranoside (4MUG) (Sigma Aldrich) in black, non-binding surface-treated microplates (Corning). Fluorescence upon hydrolysis of the 4MUG was measured at λex of 355 nm and λem of 460 nm in a M5 multi-mode plate reader (Molecular Devices) at 37 °C, measuring fluorescence every minute for a total of 30 minutes. The initial velocity was fit in the linear range of measurements, and activity was normalized to the uninhibited control in order to plot activity against the inhibitor concentration. A sigmoidal, four-parameter function with a variable slope was used to determine the EC50 values in Prism (GraphPad).

Assay [3] deals with Human lysosome α-glucosidase (Homo sapiens, UniProt P10253). Kind of assay: In vitro enzyme inhibition. The assay is classed as biochemical. As to conditions: concentration required to inhibit the enzyme to 50% activity; read-out: IC50.

For the compound `CCCC(=O)O[C@H]1CN2CC[C@H](O)[C@@H]2[C@@H](O)[C@@H]1O` [Celgosivir, 6-O-butanoyl-castanospermine], in assay [1] (100 μM (MNTD)), the “GM3 production (%)” value is 100.9 ± 4.1%. Also, the IC50 is 158 µM in assay [2] and 93.2 µM in assay [3].
The matching figures for `CCCCN1C[C@H](O)[C@@H](O)[C@@H](O)[C@H]1CO` [NB-DGJ]: 7.3 ± 1.9%, greater than 1000 µM and greater than 1000 µM.
As for `CCCCN1C[C@H](O)[C@@H](O)[C@H](O)[C@H]1CO` [NB-DNJ, N-butyl-DNJ], the “GM3 production (%)” value in assay [1] (100 μM (MNTD)) is listed as 8.8 ± 3.6%. Besides, the inhibition at 10 µM in assay [1] (Homo sapiens, 10 μM, MDMΦs) fell in the range of 90 to 95%. Besides, the EC50 in assay [1] (Homo sapiens, titration 1 to 100 μM, three donors, read-out: 95% CI for GM3 EC50) was 800 to 1370 nM. Also, the IC50 in assay [2] was 5.2 µM; in assay [3], 0.27 µM.
Turning to `CCCCCCCCCN1C[C@H](O)[C@@H](O)[C@@H](O)[C@H]1CO` [NN-DGJ], the “GM3 production (%)” value in assay [1] (31.6 μM (MNTD)) was 4.9 ± 1.9%. The IC50 in assay [2] and in assay [3] was greater than 1000 µM in each case.
